Experimental data from patent US20030129629A1, “Methods and compositions for the identification, assessment, prevention, and therapy of human cancers” (Millennium Pharmaceuticals, Inc., priority 2000, published 2003).
Read-outs that look alike come from different tables or passages of the source.

Columns and labels:
[1] = tested on: 60 cancer cell lines (NCI 60 cancer cell line series); assay: NCI-DTP in vitro cancer screen, sulforhodamine B (SRB) growth inhibition, 48 hour exposure; type: cell-based, human
How it was run: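 Potency is given as mean −log{GI50} from dose–response curves, manually binned into Low, Medium or High sensitivity. Sixty NCI-DTP tumour lines were treated 48 h with a duplicate, five-dose, ten-fold dilution series, and growth read by SRB staining of cell mass.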

[2] = tested on: 60 cancer cell lines (NCI 60 cancer cell line series); conditions: cited from earlier work

Compound: CC(=O)O[C@H]1C(=O)[C@@]2(C)[C@H]([C@H](OC(=O)c3ccccc3)[C@]3(O)C[C@H](OC(=O)[C@H](O)[C@@H](NC(=O)c4ccccc4)c4ccccc4)C(C)=C1C3(C)C)[C@]1(OC(C)=O)CO[C@@H]1C[C@@H]2O [TAXOL, paclitaxel, reference compound]
- classification of cell line as Low(1), Medium(2), High(3) sensitivity to compound ([1]; Breast BT-549 CL5013): 2
- classification of cell line as Low(1), Medium(2), High(3) sensitivity to compound ([1]; Breast MCF7/ADRr CL5002): 1
- classification of cell line as Low(1), Medium(2), High(3) sensitivity to compound ([1]; Breast MDA-MB-231 CL5005): 2
- classification of cell line as Low(1), Medium(2), High(3) sensitivity to compound ([1]; Breast MDA-MB-435 CL5011): 3
- classification of cell line as Low(1), Medium(2), High(3) sensitivity to compound ([1]; Breast MDA-N CL5012): 3
- classification of cell line as Low(1), Medium(2), High(3) sensitivity to compound ([1]; CNS SF-268 CL12014): 2
- classification of cell line as Low(1), Medium(2), High(3) sensitivity to compound ([1]; CNS SF-295 CL12015): 2
- classification of cell line as Low(1), Medium(2), High(3) sensitivity to compound ([1]; CNS SF-539 CL12016): 2
- classification of cell line as Low(1), Medium(2), High(3) sensitivity to compound ([1]; CNS SNB-19 CL12002): 2
- classification of cell line as Low(1), Medium(2), High(3) sensitivity to compound ([1]; CNS U251(I) CL12009): 2
- classification of cell line as Low(1), Medium(2), High(3) sensitivity to compound ([1]; Colon HCT-15 CL4015): 1
- classification of cell line as Low(1), Medium(2), High(3) sensitivity to compound ([1]; Colon HCT-116 CL4003): 3
- classification of cell line as Low(1), Medium(2), High(3) sensitivity to compound ([1]; Colon HT29(I) CL4001): 3
- classification of cell line as Low(1), Medium(2), High(3) sensitivity to compound ([1]; Colon KM12 CL4017): 2
- classification of cell line as Low(1), Medium(2), High(3) sensitivity to compound ([1]; Leukemia MOLT-4 CL7006): 2
- classification of cell line as Low(1), Medium(2), High(3) sensitivity to compound ([1]; Leukemia RPMI-8226(I) CL7010): 3
- classification of cell line as Low(1), Medium(2), High(3) sensitivity to compound ([1]; Melanoma M14 CL10014): 2
- sensitivity classification Low(1)/Medium(2)/High(3) ([1]; NSCLC NCI-H23(I) CL1001): 2
- sensitivity classification Low(1)/Medium(2)/High(3) ([1]; NSCLC NCI-H332M CL1017): 2
- sensitivity classification Low(1)/Medium(2)/High(3) ([1]; Ovarian IGROV1 CL6010): 2
- sensitivity classification Low(1)/Medium(2)/High(3) ([1]; Ovarian OVCAR-4 CL6002): 1
- sensitivity classification Low(1)/Medium(2)/High(3) ([1]; Ovarian OVCAR-8 CL6005): 2
- sensitivity classification Low(1)/Medium(2)/High(3) ([1]; Ovarian SK-OV-3 CL6011): 2
- sensitivity classification Low(1)/Medium(2)/High(3) ([1]; Prostate DU-145 CL11003): 2
- sensitivity classification Low(1)/Medium(2)/High(3) ([1]; Prostate PC-3(I) CL11001): 2
- sensitivity classification Low(1)/Medium(2)/High(3) ([1]; Renal 786-0 CL9018): 2
- sensitivity classification Low(1)/Medium(2)/High(3) ([1]; Renal ACHN CL9023): 1
- sensitivity classification Low(1)/Medium(2)/High(3) ([1]; Renal CAKI-1 CL9015): 1
- sensitivity classification Low(1)/Medium(2)/High(3) ([1]; Renal RXF-393 CL9016): 2
- sensitivity classification Low(1)/Medium(2)/High(3) ([1]; Renal SN12C CL9008): 2
- sensitivity classification Low(1)/Medium(2)/High(3) ([1]; Renal UO-31 CL9004): 1
- −Log (GI50) ([2]; Breast MCF7/ADRr CL5002): 5.5
- −Log (GI50) ([2]; Colon COLO-250 CL4010): 8.0
- −Log (GI50) ([2]; Melanoma SK-MEL-5 CL10007): 6.3
- −Log (GI50) ([2]; Melanoma UACC-62 CL10020): 8.1
- −Log (GI50) ([2]; Melanoma UACC-257 CL10021): 7.1
- −Log (GI50) ([2]; NSCLC A549/ATCC CL1004): 8.0
- −Log (GI50) ([2]; NSCLC EKVX CL1008): 4.8
- −Log (GI50) ([2]; NSCLC HOP-62 CL1026): 7.4
- −Log (GI50) ([2]; NSCLC HOP-92 CL1029): 5.7
- −Log (GI50) ([2]; Ovarian OVCAR-5 CL6003): 6.8

Compound: COc1cccc2c1C(=O)c1c(O)c3c(c(O)c1C2=O)C[C@@](O)(C(C)=O)C[C@@H]3O[C@H]1C[C@H](N)[C@H](O)[C@H](C)O1 [Daunorubicin]
- classification of cell line as Low(1), Medium(2), High(3) sensitivity to compound ([1]; Breast BT-549 CL5013): 1
- classification of cell line as Low(1), Medium(2), High(3) sensitivity to compound ([1]; Breast MCF7(I) CL5001): 3
- classification of cell line as Low(1), Medium(2), High(3) sensitivity to compound ([1]; Breast MCF7/ADRr CL5002): 1
- classification of cell line as Low(1), Medium(2), High(3) sensitivity to compound ([1]; Breast MDA-MB-231 CL5005): 1
- classification of cell line as Low(1), Medium(2), High(3) sensitivity to compound ([1]; Breast MDA-MB-435 CL5011): 1
- classification of cell line as Low(1), Medium(2), High(3) sensitivity to compound ([1]; Breast MDA-N CL5012): 1
- classification of cell line as Low(1), Medium(2), High(3) sensitivity to compound ([1]; Breast T-47D CL5014): 2
- classification of cell line as Low(1), Medium(2), High(3) sensitivity to compound ([1]; CNS SF-268 CL12014): 2
- classification of cell line as Low(1), Medium(2), High(3) sensitivity to compound ([1]; CNS SF-295 CL12015): 2
- classification of cell line as Low(1), Medium(2), High(3) sensitivity to compound ([1]; CNS SNB-19 CL12002): 2
- classification of cell line as Low(1), Medium(2), High(3) sensitivity to compound ([1]; CNS SNB-75(I) CL12005): 2
- classification of cell line as Low(1), Medium(2), High(3) sensitivity to compound ([1]; CNS U251(I) CL12009): 2
- classification of cell line as Low(1), Medium(2), High(3) sensitivity to compound ([1]; Colon COLO-250 CL4010): 1
- classification of cell line as Low(1), Medium(2), High(3) sensitivity to compound ([1]; Colon HCC-2998 CL4002): 1
- classification of cell line as Low(1), Medium(2), High(3) sensitivity to compound ([1]; Colon HCT-15 CL4015): 1
- classification of cell line as Low(1), Medium(2), High(3) sensitivity to compound ([1]; Colon HCT-116 CL4003): 2
- classification of cell line as Low(1), Medium(2), High(3) sensitivity to compound ([1]; Colon HT29(I) CL4001): 2
- classification of cell line as Low(1), Medium(2), High(3) sensitivity to compound ([1]; Colon SW-620 CL4009): 2
- classification of cell line as Low(1), Medium(2), High(3) sensitivity to compound ([1]; Leukemia CCRF-CEM(I) CL7003): 3
- classification of cell line as Low(1), Medium(2), High(3) sensitivity to compound ([1]; Leukemia HL-60(I) CL7008): 3
- classification of cell line as Low(1), Medium(2), High(3) sensitivity to compound ([1]; Leukemia MOLT-4 CL7006): 3
- classification of cell line as Low(1), Medium(2), High(3) sensitivity to compound ([1]; Leukemia SR CL7019): 3
- classification of cell line as Low(1), Medium(2), High(3) sensitivity to compound ([1]; Melanoma M14 CL10014): 1
- classification of cell line as Low(1), Medium(2), High(3) sensitivity to compound ([1]; Melanoma MALME-3M CL10002): 2
- classification of cell line as Low(1), Medium(2), High(3) sensitivity to compound ([1]; Melanoma SK-MEL-5 CL10007): 2
- classification of cell line as Low(1), Medium(2), High(3) sensitivity to compound ([1]; Melanoma SK-MEL-28 CL10008): 1
- classification of cell line as Low(1), Medium(2), High(3) sensitivity to compound ([1]; Melanoma UACC-62 CL10020): 2
- classification of cell line as Low(1), Medium(2), High(3) sensitivity to compound ([1]; Melanoma UACC-257 CL10021): 1
- classification of cell line as Low(1), Medium(2), High(3) sensitivity to compound ([1]; NSCLC A549/ATCC CL1004): 2
- classification of cell line as Low(1), Medium(2), High(3) sensitivity to compound ([1]; NSCLC EKVX CL1008): 1
- classification of cell line as Low(1), Medium(2), High(3) sensitivity to compound ([1]; NSCLC HOP-62 CL1026): 2
- classification of cell line as Low(1), Medium(2), High(3) sensitivity to compound ([1]; NSCLC HOP-92 CL1029): 2
- sensitivity classification Low(1)/Medium(2)/High(3) ([1]; NSCLC NCI-H23(I) CL1001): 2
- classification of cell line as Low(1), Medium(2), High(3) sensitivity to compound ([1]; NSCLC NCI-H226 CL1013): 2
- sensitivity classification Low(1)/Medium(2)/High(3) ([1]; NSCLC NCI-H332M CL1017): 1
- sensitivity classification Low(1)/Medium(2)/High(3) ([1]; NSCLC NCI-H460 CL1021): 3
- sensitivity classification Low(1)/Medium(2)/High(3) ([1]; NSCLC NCI-H522 CL1003): 2
- sensitivity classification Low(1)/Medium(2)/High(3) ([1]; Ovarian IGROV1 CL6010): 2
- sensitivity classification Low(1)/Medium(2)/High(3) ([1]; Ovarian OVCAR-3 CL6001): 1
- sensitivity classification Low(1)/Medium(2)/High(3) ([1]; Ovarian OVCAR-4 CL6002): 1
- sensitivity classification Low(1)/Medium(2)/High(3) ([1]; Ovarian OVCAR-5 CL6003): 1
- sensitivity classification Low(1)/Medium(2)/High(3) ([1]; Ovarian OVCAR-8 CL6005): 2
- sensitivity classification Low(1)/Medium(2)/High(3) ([1]; Prostate DU-145 CL11003): 2
- sensitivity classification Low(1)/Medium(2)/High(3) ([1]; Prostate PC-3(I) CL11001): 2
- sensitivity classification Low(1)/Medium(2)/High(3) ([1]; Renal 786-0 CL9018): 2
- sensitivity classification Low(1)/Medium(2)/High(3) ([1]; Renal A498 CL9013): 1
- sensitivity classification Low(1)/Medium(2)/High(3) ([1]; Renal ACHN CL9023): 2
- sensitivity classification Low(1)/Medium(2)/High(3) ([1]; Renal CAKI-1 CL9015): 2
- sensitivity classification Low(1)/Medium(2)/High(3) ([1]; Renal RXF-393 CL9016): 1
- sensitivity classification Low(1)/Medium(2)/High(3) ([1]; Renal SN12C CL9008): 2
- sensitivity classification Low(1)/Medium(2)/High(3) ([1]; Renal TK10 CL9024): 1
- sensitivity classification Low(1)/Medium(2)/High(3) ([1]; Renal UO-31 CL9004): 1
- −Log (GI50) ([2]; Breast MCF7/ADRr CL5002): 5.3
- −Log (GI50) ([2]; Colon COLO-250 CL4010): 6.8
- −Log (GI50) ([2]; NSCLC NCI-H226 CL1013): 7.5
- −Log (GI50) ([2]; Renal UO-31 CL9004): 6.4
